Measurements from ChEMBL document CHEMBL3593172, “4-(N-Phenyl-N'-substituted benzenesulfonyl)-6-(4-hydroxyphenyl)quinolines as inhibitors of mammalian target of rapamycin” (Bioorg Med Chem, 2015).

Assays:
PC-3 [1] = experiment: Cytotoxicity against human PC3 cells assessed as growth inhibition at 100 uM after 24 to 48 hrs by MTT assay relative to control; type: functional; conditions: read-out: GI
HL-60 [2] = experiment: Cytotoxicity against human HL60 cells assessed as growth inhibition at 10 uM after 24 to 48 hrs by MTT assay relative to control; type: functional; conditions: read-out: GI
HepG2 [3] = experiment: Cytotoxicity against human HepG2 cells assessed as growth inhibition at 100 uM after 24 to 48 hrs by MTT assay relative to control; type: functional; conditions: read-out: GI
HL-60 [4] = experiment: Cytotoxicity against human HL60 cells assessed as growth inhibition at 30 uM after 24 to 48 hrs by MTT assay relative to control; type: functional; conditions: read-out: GI
HCT-116 [5] = experiment: Cytotoxicity against human HCT116 cells assessed as growth inhibition at 30 uM after 24 to 48 hrs by MTT assay relative to control; type: functional; conditions: read-out: GI
PC-3 [6] = experiment: cells; conditions: Homo sapiens, PC-3, 48 h
Description: Cytotoxicity against human PC3 cells assessed as inhibition of cell proliferation after 48 hrs by MTT assay

HepG2 [7] = experiment: cells; conditions: Homo sapiens, HepG2, 48 h
Description: Cytotoxicity against human HepG2 cells assessed as inhibition of cell proliferation after 48 hrs by MTT assay

HepG2 [8] = experiment: Cytotoxicity against human HepG2 cells assessed as growth inhibition at 30 uM after 24 to 48 hrs by MTT assay relative to control; type: functional; conditions: read-out: GI
PC-3 [9] = experiment: Cytotoxicity against human PC3 cells assessed as growth inhibition at 30 uM after 24 to 48 hrs by MTT assay relative to control; type: functional; conditions: read-out: GI
HL-60 [10] = experiment: cells; conditions: Homo sapiens, HL-60, 48 h
Description: Cytotoxicity against human HL60 cells assessed as inhibition of cell proliferation after 48 hrs by MTT assay

[11] = Cytotoxicity against human MIAPaCa2 cells assessed as growth inhibition at 30 uM after 24 to 48 hrs by MTT assay relative to control; type: functional; conditions: MIA PaCa-2, read-out: GI
HCT-116 [12] = experiment: cells; conditions: Homo sapiens, HCT-116, 48 h
Description: Cytotoxicity against human HCT116 cells assessed as inhibition of cell proliferation after 48 hrs by MTT assay

HepG2 [13] = experiment: Cytotoxicity against human HepG2 cells assessed as growth inhibition at 10 uM after 24 to 48 hrs by MTT assay relative to control; type: functional; conditions: read-out: GI
cells = conditions: Homo sapiens, MIA PaCa-2, 48 h
Description: Cytotoxicity against human MIAPaCa2 cells assessed as inhibition of cell proliferation after 48 hrs by MTT assay

HCT-116 [14] = experiment: Cytotoxicity against human HCT116 cells assessed as growth inhibition at 10 uM after 24 to 48 hrs by MTT assay relative to control; type: functional; conditions: read-out: GI
HCT-116 [15] = experiment: Cytotoxicity against human HCT116 cells assessed as growth inhibition at 100 uM after 24 to 48 hrs by MTT assay relative to control; type: functional; conditions: read-out: GI
HL-60 [16] = experiment: Cytotoxicity against human HL60 cells assessed as growth inhibition at 100 uM after 24 to 48 hrs by MTT assay relative to control; type: functional; conditions: read-out: GI
[17] = Cytotoxicity against human MIAPaCa2 cells assessed as growth inhibition at 10 uM after 24 to 48 hrs by MTT assay relative to control; type: functional; conditions: MIA PaCa-2, read-out: GI
PC-3 [18] = experiment: Cytotoxicity against human PC3 cells assessed as growth inhibition at 10 uM after 24 to 48 hrs by MTT assay relative to control; type: functional; conditions: read-out: GI
[19] = Cytotoxicity against human MIAPaCa2 cells assessed as growth inhibition at 100 uM after 24 to 48 hrs by MTT assay relative to control; type: functional; conditions: MIA PaCa-2, read-out: GI

Structure (SMILES) | IC50 (PC-3 [6]) [µM] | IC50 (HepG2 [7]) [µM] | IC50 (HL-60 [10]) [µM] | IC50 (HCT-116 [12]) [µM] | IC50 (cells) [µM] | inhibition of growth at 100 µM (PC-3 [1]) [%] | inhibition of growth at 10 µM (HL-60 [2]) [%] | inhibition of growth at 100 µM (HepG2 [3]) [%] | inhibition of growth at 30 µM (HL-60 [4]) [%] | inhibition of growth at 30 µM (HCT-116 [5]) [%] | inhibition of growth at 30 µM (HepG2 [8]) [%] | inhibition of growth at 30 µM (PC-3 [9]) [%] | inhibition of growth at 30 µM [11] [%] | inhibition of growth at 10 µM (HepG2 [13]) [%] | inhibition of growth at 10 µM (HCT-116 [14]) [%] | inhibition of growth at 100 µM (HCT-116 [15]) [%] | inhibition of growth at 100 µM (HL-60 [16]) [%] | inhibition of growth at 10 µM [17] [%] | inhibition of growth at 10 µM (PC-3 [18]) [%] | inhibition of growth at 100 µM [19] [%]
N#Cc1ccc(S(=O)(=O)N(c2ccccc2)c2ccnc3ccc(-c4ccc(O)cc4)cc23)cc1 | > 100 | > 100 | 58 | > 100 | 78 | 19 | 12 | 34 | 30 | 21 | 1 | 10 | 21 | 1 | 5 | 36 | 78 | 16 | 9 | 64
Cc1c(C)c(C)c(S(=O)(=O)N(c2ccccc2)c2ccnc3ccc(-c4ccc(O)cc4)cc23)c(C)c1C | > 100 | > 100 | > 100 | > 100 | > 100 | 15 | 5 | 10 | 8 | 15 | 2 | 14 | 17 | 1 | 14 | 24 | 15 | 16 | 12 | 22
O=[N+]([O-])c1ccc(S(=O)(=O)N(c2ccccc2)c2ccnc3ccc(-c4ccc(O)cc4)cc23)cc1 | > 100 | 22 | < 10 | 90 | 25 | 47 | 86 | 84 | 87 | 4 | 76 | 30 | 59 | 8 | 2 | 58 | 89 | 21 | 4 | 81

Now from value to compound, other results behind:

IC50 (PC-3 [6]) [µM] | IC50 (HepG2 [7]) [µM] | IC50 (HL-60 [10]) [µM] | IC50 (HCT-116 [12]) [µM] | IC50 (cells) [µM] | Structure (SMILES) | inhibition of growth at 100 µM (PC-3 [1]) [%] | inhibition of growth at 10 µM (HL-60 [2]) [%] | inhibition of growth at 100 µM (HepG2 [3]) [%] | inhibition of growth at 30 µM (HL-60 [4]) [%] | inhibition of growth at 30 µM (HCT-116 [5]) [%] | inhibition of growth at 30 µM (HepG2 [8]) [%] | inhibition of growth at 30 µM (PC-3 [9]) [%] | inhibition of growth at 30 µM [11] [%] | inhibition of growth at 10 µM (HepG2 [13]) [%] | inhibition of growth at 10 µM (HCT-116 [14]) [%] | inhibition of growth at 100 µM (HCT-116 [15]) [%] | inhibition of growth at 100 µM (HL-60 [16]) [%] | inhibition of growth at 10 µM [17] [%] | inhibition of growth at 10 µM (PC-3 [18]) [%] | inhibition of growth at 100 µM [19] [%]
> 100 | 22 | < 10 | 68 | 20 | O=S(=O)(c1ccc(Br)cc1)N(c1ccccc1)c1ccnc2ccc(-c3ccc(O)cc3)cc12 | 25 | 69 | 80 | 88 | 23 | 73 | 28 | 76 | 1 | 9 | 73 | 87 | 27 | 15 | 81
21 | 18 | 14 | 27 | 18 | Oc1ccc(-c2ccc3nccc(Nc4ccccc4)c3c2)cc1 | 90 | 41 | 86 | 65 | 53 | 53 | 74 | 91 | 8 | 8 | 86 | 82 | 28 | 27 | 93
25 | 12 | < 10 | 28 | < 10 | O=S(=O)(c1ccccc1)N(c1ccccc1)c1ccnc2ccc(-c3ccc(O)cc3)cc12 | 76 | 87 | 91 | 89 | 57 | 90 | 61 | 84 | 40 | 8 | 89 | 91 | 80 | 15 | 87
